Tests used:
[1] = molecular target: T1, Rice recombinant CYP701A6 (ent-kaurene oxidase) (Oryza sativa subsp. japonica, UniProt Q5Z5R4); assay: CYP701A6 inhibition assay (formation of end product KA); type: biochemical; details: Rice recombinant CYP701A6 expressed in insect cells; 10 μM ent-kaurene; formation of KA; read-out: CYP701A IC50
T1 construct: made in house; host or cells: insect cells (baculovirus vector)
T1 sequence (Q5Z5R4 1-505): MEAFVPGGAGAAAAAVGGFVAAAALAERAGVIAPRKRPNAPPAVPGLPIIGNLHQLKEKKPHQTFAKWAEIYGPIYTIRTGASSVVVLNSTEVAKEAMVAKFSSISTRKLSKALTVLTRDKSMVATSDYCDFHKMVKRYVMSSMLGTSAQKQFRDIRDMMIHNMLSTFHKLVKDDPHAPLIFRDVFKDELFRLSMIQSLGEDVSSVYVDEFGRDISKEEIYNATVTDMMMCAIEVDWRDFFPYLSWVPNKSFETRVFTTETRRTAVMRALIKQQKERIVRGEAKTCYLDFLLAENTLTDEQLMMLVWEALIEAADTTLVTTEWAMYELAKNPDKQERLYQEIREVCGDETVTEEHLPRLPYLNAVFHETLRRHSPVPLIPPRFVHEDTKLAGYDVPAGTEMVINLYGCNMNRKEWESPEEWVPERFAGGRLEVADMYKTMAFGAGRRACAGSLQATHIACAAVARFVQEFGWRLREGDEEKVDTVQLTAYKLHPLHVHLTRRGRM
Method: To evaluate the enzymatic selectivity between CYP707A and CYP701A, we examined the inhibitory activity against recombinant rice containing CYP701A6 expressed in insect cells using a baculovirus vector. This enzyme catalyses all three steps to KA via the corresponding alcohol and aldehyde, and consequently, the kinetic analysis is very complicated. Therefore, we evaluate the IC50 value for the formation of the end product, KA, instead of the KI value.
Reaction mixtures, containing 0.058 μM of […] microsomes, ATR2 (0.115 U), ent-kaurene (final concentration of 10 μM), inhibitors (0 for control, 1.5–1,500 μM in 8 μL dimethylformamide), and 20 mM NADPH in 500 mM potassium phosphate buffer (pH 7.4), were incubated at 30 °C for 10 min. Reactions were initiated by adding NADPH and stopped by the addition of 100 μL of 1 M HCl. Abietic acid, as the internal standard, was then added to the reaction product, which was extracted with EtOAc (400 μL × 3). The organic phase was dried over Na2SO4 and concentrated in vacuo. To derivatize the reaction products, MeOH (50 μL) and trimethylsilyldiazomethane (2 M in 5 μL hexane) were added, and the reaction mixture was incubated at room temperature for 10 min. The organic solvent was removed under N2, and samples were adjusted to 150 μL with hexane before a gas chromatography-mass spectrometry analysis (QP2010-plus; Shimadzu Corp., Kyoto, Japan). The conditions were as follows: the column was DB-5ms (0.25 mm id × 15 m, 0.25 μm film thickness; Agilent J & W, Folsom, CA, USA), the carrier gas was He, the flow rate was 1.65 mL min^−1, the injection port temperature was 280 °C, splitless injection, and the programmed column temperature was a step gradient of 80 °C for 1 min, 80–200 °C at 18 °C min^−1, 200–210 °C at 2 °C min^−1, 210–280 °C at 30 °C min^−1, and then 280 °C for 3 min. The KA content was calculated from the area ratio of molecular and fragment ions of methyl KA (m/z 316, 273, and 257) to those of methyl abietate (m/z 316 and 256). The inhibition ratio was defined as [(A − B)/A] × 100, where A = the amount of methyl KA/methyl abietate when the inhibitor was absent from the reaction mixture (control), and B = the amount of methyl KA/methyl abietate when the inhibitor was present. All of the tests were conducted at least three times.

[2] = test system: Arabidopsis stomata / leaf surface temperature; assay: Thermal imaging and stomatal aperture in Arabidopsis; type: in vivo
Method: The effects of (-)-Abz-[…] were also determined relative to stomatal apertures. Arabidopsis grown in soil pots underwent moderate drought stress under the optimal growth conditions of 22 °C and 60% relative humidity. Under these growth conditions, the leaf surface temperature of the mock-treated controls was 19.5 °C, which was lower than the surrounding atmospheric temperature because of transpirational water loss (Fig. 6a,b)[30]. […] Finally, we examined the effects of (-)-Abz-[…] on drought tolerance under more practical conditions. Three-week-old Arabidopsis were sprayed with an aqueous solution containing 50 μM (-)-Abz-[…]. Water was not supplied for 12 days, and then the plants were rehydrated. […] We also tested the effects of (-)-Abz-[…] on a monocot crop, maize, to evaluate whether (-)-Abz-[…] affected stomatal movement and enhanced ABA response across plant species. […] Thus, the effects of (-)-Abz-[…] were not restricted to the model plant Arabidopsis. Figure 6 Effects of (-)-Abz-[…] on Arabidopsis drought tolerance. (a,b) Three-week-old plants were treated with 50 μM of (-)-Abz-[…] and incubated overnight at 22 °C with 60% relative humidity. Thermal images of plants were obtained using a thermal imaging camera ([…], Nippon Avionics Co., Ltd.), and the average temperatures on leaf surfaces were determined with NS9200 software (n = 5, error bars represent s.d.). Representative images are shown in (a). (c) Stomatal apertures after the application of 50 μM (-)-Abz-[…]. After an overnight incubation, plants were placed at 22 °C with ~90% relative humidity for 1 h. Stomatal images were obtained using Suzuki's universal micro-printing method. […] (d) Effects of (-)-Abz-[…] on endogenous ABA levels. Four-week old plants grown in soil pots were treated with 50 μM (-)-Abz-[…], and leaves were harvested after an overnight incubation. Values are means with s.d. (n = 6). (e) Four-week-old plants were subjected to drought stress by withholding water. […]

[3] = test system: Arabidopsis drought tolerance; assay: Arabidopsis drought tolerance analysis; type: in vivo; details: 50 μM spray, water withheld 12 days, then rehydrated
Method: The effects of (-)-Abz-[…] were also determined relative to stomatal apertures. Arabidopsis grown in soil pots underwent moderate drought stress under the optimal growth conditions of 22 °C and 60% relative humidity. Under these growth conditions, the leaf surface temperature of the mock-treated controls was 19.5 °C, which was lower than the surrounding atmospheric temperature because of transpirational water loss (Fig. 6a,b)[30]. […] Finally, we examined the effects of (-)-Abz-[…] on drought tolerance under more practical conditions. Three-week-old Arabidopsis were sprayed with an aqueous solution containing 50 μM (-)-Abz-[…]. Water was not supplied for 12 days, and then the plants were rehydrated. […] We also tested the effects of (-)-Abz-[…] on a monocot crop, maize, to evaluate whether (-)-Abz-[…] affected stomatal movement and enhanced ABA response across plant species. […] Thus, the effects of (-)-Abz-[…] were not restricted to the model plant Arabidopsis. Figure 6 Effects of (-)-Abz-[…] on Arabidopsis drought tolerance. (a,b) Three-week-old plants were treated with 50 μM of (-)-Abz-[…] and incubated overnight at 22 °C with 60% relative humidity. Thermal images of plants were obtained using a thermal imaging camera ([…], Nippon Avionics Co., Ltd.), and the average temperatures on leaf surfaces were determined with NS9200 software (n = 5, error bars represent s.d.). […]

For abscinazole-E3M [(−)-6], the IC50 [1] was 780 nM, the Transpirational water loss ([2]; 50 μM spray, overnight) was “reduced the water loss” and the Leaf surface temperature ([2]; 50 μM spray, overnight, 22 °C, 60% relative humidity) was “increased leaf temperatures”. For the same substance, the Stomatal aperture ([2]; 50 μM, overnight then ~90% relative humidity 1 h) was “led to stomatal closure” and the “Drought tolerance and survival” value [3] was “induced significant drought tolerance and increased the survival rate”.

— PMC5107945, “Abscinazole-E3M, a practical inhibitor of abscisic acid 8′-hydroxylase for improving drought tolerance” (Scientific Reports, 2016)
